Measured values: patent publication US11345712B2, “Protein-targeting compounds and pharmaceutical compositions thereof, and their therapeutic applications” (BioTheryX, Inc., priority 2019, dated 2022)

tested on: MOLM-13 cells; assay: MOLM-13 cell viability assay (CellTiter-Glo); type: cell-based; conditions: Homo sapiens, MOLM-13, 72 h, 3 days, concentration of 1 μM, read-out: Antiproliferative Activity (inhibition, MOLM-13 cell viability)
Protocol: MOLM-13 cells were cultured in RPMI 1640 media supplemented with 10% fetal bovine serum, streptomycin, and penicillin. The cells were plated in white walled 96-well plates at 2,500 cells/well. The cells were incubated in DMSO (control) or an indicated compound for 3 days at 37° C. and 5% CO2. Following the incubation period, 100 μL of CELLTITER-GLO® (CTG) reagent was added to each well. Following a 10 minutes incubation with shaking, luminescence was measured using an ENVISION® Multimode plate reader.

| SMILES | cytotoxicity at 1 µM [%] |
| --- | --- |
| O=C1CCC(N2Cc3c(CCNC(=O)C(=O)c4ccc(C5(C(F)(F)F)CC5)cc4)cccc3C2=O)C(=O)N1 (stereo not drawn) [Compound I-65, N-(2-(2-(2,6-dioxopiperidin-3-yl)-1-oxoisoindolin-4-yl)ethyl)-2-oxo-2-(4-(1-(trifluoromethyl)cyclopropyl)phenyl)acetamide] | < 25 |
| O=C1CCC(N2Cc3c(CNC(=O)C(=O)c4ccc(C5CCNCC5)cc4)cccc3C2=O)C(=O)N1 (stereo not drawn) [Compound I-66, N-((2-(2,6-dioxopiperidin-3-yl)-1-oxoisoindolin-4-yl)methyl)-2-oxo-2-(4-(piperidin-4-yl)phenyl)acetamide] | < 25 |
| CC(C)(C)C1CCC(C(=O)C(=O)NCc2cccc3c2CN(C2CCC(=O)NC2=O)C3=O)CC1 (stereo not drawn) [Compound I-67, 2-(4-(tert-butyl)cyclohexyl)-N-((2-(2,6-dioxopiperidin-3-yl)-1-oxoisoindolin-4-yl)methyl)-2-oxoacetamide] | 25 to 50 |
| CC(C)(C)C1CCC(C(=O)C(=O)NCc2ccc3c(c2)CN(C2CCC(=O)NC2=O)C3=O)CC1 (stereo not drawn) [Compound I-68, 2-(4-(tert-butyl)cyclohexyl)-N-((2-(2,6-dioxopiperidin-3-yl)-1-oxoisoindolin-5-yl)methyl)-2-oxoacetamide] | < 25 |
| Cc1ccc(C(=O)C(=O)NCc2cccc3c2CN(C2CCC(=O)NC2=O)C3=O)cc1 (stereo not drawn) [Compound I-72, N-((2-(2,6-dioxopiperidin-3-yl)-1-oxoisoindolin-4-yl)methyl)-2-oxo-2-(p-tolyl)acetamide] | < 25 |
| O=C1CCC(N2Cc3c(CNC(=O)C(=O)c4ccc(F)c(F)c4)cccc3C2=O)C(=O)N1 (stereo not drawn) [Compound I-73, 2-(3,4-difluorophenyl)-N-((2-(2,6-dioxopiperidin-3-yl)-1-oxoisoindolin-4-yl)methyl)-2-oxoacetamide] | < 25 |
| O=C1CCC(N2Cc3c(CNC(=O)C(=O)c4ccccc4)cccc3C2=O)C(=O)N1 (stereo not drawn) [Compound I-74, N-((2-(2,6-dioxopiperidin-3-yl)-1-oxoisoindolin-4-yl)methyl)-2-oxo-2-phenylacetamide] | < 25 |
| O=C1CCC(N2Cc3c(CNC(=O)C(=O)c4ccc(C(F)(F)F)cc4)cccc3C2=O)C(=O)N1 (stereo not drawn) [Compound I-75, N-((2-(2,6-dioxopiperidin-3-yl)-1-oxoisoindolin-4-yl)methyl)-2-oxo-2-(4-(trifluoromethyl)phenyl)acetamide] | 25 to 50 |
| N#Cc1ccc(C(=O)C(=O)NCc2cccc3c2CN(C2CCC(=O)NC2=O)C3=O)cc1 (stereo not drawn) [Compound I-76, 2-(4-cyanophenyl)-N-((2-(2,6-dioxopiperidin-3-yl)-1-oxoisoindolin-4-yl)methyl)-2-oxoacetamide] | < 25 |
| O=C1CCC(N2Cc3c(CNC(=O)C(=O)c4ccc(Cl)cc4)cccc3C2=O)C(=O)N1 (stereo not drawn) [Compound I-77, 2-(4-chlorophenyl)-N-((2-(2,6-dioxopiperidin-3-yl)-1-oxoisoindolin-4-yl)methyl)-2-oxoacetamide] | < 25 |
| COc1ccc(C(=O)C(=O)NCc2cccc3c2CN(C2CCC(=O)NC2=O)C3=O)cc1 (stereo not drawn) [Compound I-78, 2-(4-methoxyphenyl)-N-((2-(2,6-dioxopiperidin-3-yl)-1-oxoisoindolin-4-yl)methyl)-2-oxoacetamide] | 25 to 50 |
| COc1cc(OC)c(C(=O)C(=O)NCc2cccc3c2CN(C2CCC(=O)NC2=O)C3=O)c(OC)c1 (stereo not drawn) [Compound I-79, 2-(2,4,6-trimethoxyphenyl)-N-((2-(2,6-dioxopiperidin-3-yl)-1-oxoisoindolin-4-yl)methyl)-2-oxoacetamide] | < 25 |
| Cc1cc(C)c(C(=O)C(=O)NCc2cccc3c2CN(C2CCC(=O)NC2=O)C3=O)c(C)c1 (stereo not drawn) [Compound I-80, 2-(2,4,6-trimethylphenyl)-N-((2-(2,6-dioxopiperidin-3-yl)-1-oxoisoindolin-4-yl)methyl)-2-oxoacetamide] | < 25 |
| O=C1CCC(N2Cc3c(CNC(=O)C(=O)c4ccc(F)cc4)cccc3C2=O)C(=O)N1 (stereo not drawn) [Compound I-81, 2-(4-fluorophenyl)-N-((2-(2,6-dioxopiperidin-3-yl)-1-oxoisoindolin-4-yl)methyl)-2-oxoacetamide] | 25 to 50 |
| O=C1CCC(N2Cc3c(CNC(=O)C(=O)c4ccccc4F)cccc3C2=O)C(=O)N1 (stereo not drawn) [Compound I-82, 2-(2-fluorophenyl)-N-((2-(2,6-dioxopiperidin-3-yl)-1-oxoisoindolin-4-yl)methyl)-2-oxoacetamide] | 25 to 50 |
| O=C1CCC(N2Cc3cc(CNC(=O)C(=O)c4ccccc4)ccc3C2=O)C(=O)N1 (stereo not drawn) [Compound I-83, N-((2-(2,6-dioxopiperidin-3-yl)-1-oxoisoindolin-5-yl)methyl)-2-oxo-2-phenylacetamide] | > 80 |
| COc1cc(OC)c(C(=O)C(=O)NCc2ccc3c(c2)CN(C2CCC(=O)NC2=O)C3=O)c(OC)c1 (stereo not drawn) [Compound I-84, N-((2-(2,6-dioxopiperidin-3-yl)-1-oxoisoindolin-5-yl)methyl)-2-oxo-2-(2,4,6-trimethoxyphenyl)acetamide] | 25 to 50 |

| SMILES | cytotoxicity at 1 µM [%] |
| --- | --- |
| Cc1cc(C)c(C(=O)C(=O)NCc2ccc3c(c2)CN(C2CCC(=O)NC2=O)C3=O)c(C)c1 (stereo not drawn) [Compound I-85, N-((2-(2,6-dioxopiperidin-3-yl)-1-oxoisoindolin-5-yl)methyl)-2-oxo-2-(2,4,6-trimethylphenyl)acetamide] | 50 to 80 |
| O=C1CCC(N2Cc3cc(CNC(=O)C(=O)c4ccccc4F)ccc3C2=O)C(=O)N1 (stereo not drawn) [Compound I-86, N-((2-(2,6-dioxopiperidin-3-yl)-1-oxoisoindolin-5-yl)methyl)-2-oxo-2-(2-fluorophenyl)acetamide] | 50 to 80 |
| O=C1CCC(N2Cc3cc(CNC(=O)C(=O)c4ccc(C(F)(F)F)cc4)ccc3C2=O)C(=O)N1 (stereo not drawn) [Compound I-87, N-((2-(2,6-dioxopiperidin-3-yl)-1-oxoisoindolin-5-yl)methyl)-2-oxo-2-(4-trifluoromethylphenyl)acetamide] | 25 to 50 |
| O=C1CCC(N2Cc3c(CNC(=O)C(=O)c4cccc(Cl)c4)cccc3C2=O)C(=O)N1 (stereo not drawn) [Compound I-88, 2-(3-chlorophenyl)-N-((2-(2,6-dioxopiperidin-3-yl)-1-oxoisoindolin-4-yl)methyl)-2-oxoacetamide] | < 25 |
| COc1ccc(C(=O)C(=O)NCc2ccc3c(c2)CN(C2CCC(=O)NC2=O)C3=O)cc1 (stereo not drawn) [Compound I-89, N-((2-(2,6-dioxopiperidin-3-yl)-1-oxoisoindolin-5-yl)methyl)-2-(4-methoxyphenyl)-2-oxoacetamide] | > 80 |
| N#Cc1ccc(C(=O)C(=O)NCc2ccc3c(c2)CN(C2CCC(=O)NC2=O)C3=O)cc1 (stereo not drawn) [Compound I-90, 2-(4-cyanophenyl)-N-((2-(2,6-dioxopiperidin-3-yl)-1-oxoisoindolin-5-yl)methyl)-2-oxoacetamide] | < 25 |
| O=C1CCC(N2Cc3cc(CNC(=O)C(=O)c4cccc(Cl)c4)ccc3C2=O)C(=O)N1 (stereo not drawn) [Compound I-91, 2-(3-chlorophenyl)-N-((2-(2,6-dioxopiperidin-3-yl)-1-oxoisoindolin-5-yl)methyl)-2-oxoacetamide] | > 80 |
| O=C1CCC(N2Cc3c(CNC(=O)C(=O)c4cccc(F)c4)cccc3C2=O)C(=O)N1 (stereo not drawn) [Compound I-92, 2-(3-fluorophenyl)-N-((2-(2,6-dioxopiperidin-3-yl)-1-oxoisoindolin-4-yl)methyl)-2-oxoacetamide] | 50 to 80 |
| O=C1CCC(N2Cc3cc(CNC(=O)C(=O)c4ccc(F)c(F)c4)ccc3C2=O)C(=O)N1 (stereo not drawn) [Compound I-93, 2-(3,4-difluorophenyl)-N-((2-(2,6-dioxopiperidin-3-yl)-1-oxoisoindolin-5-yl)methyl)-2-oxoacetamide] | > 80 |
| COc1cccc(C(=O)C(=O)NCc2cccc3c2CN(C2CCC(=O)NC2=O)C3=O)c1 (stereo not drawn) [Compound I-94, 2-(3-methoxyphenyl)-N-((2-(2,6-dioxopiperidin-3-yl)-1-oxoisoindolin-4-yl)methyl)-2-oxoacetamide] | < 25 |
| COc1cccc(C(=O)C(=O)NCc2ccc3c(c2)CN(C2CCC(=O)NC2=O)C3=O)c1 (stereo not drawn) [Compound I-95, N-((2-(2,6-dioxopiperidin-3-yl)-1-oxoisoindolin-5-yl)methyl)-2-(3-methoxyphenyl)-2-oxoacetamide] | > 80 |
| O=C1CCC(N2Cc3c(CNC(=O)C(=O)c4ccc5ccccc5c4)cccc3C2=O)C(=O)N1 (stereo not drawn) [Compound I-96, N-((2-(2,6-dioxopiperidin-3-yl)-1-oxoisoindolin-4-yl)methyl)-2-(naphthalen-2-yl)-2-oxoacetamide] | < 25 |
| O=C1CCC(N2Cc3cc(CNC(=O)C(=O)c4ccncc4)ccc3C2=O)C(=O)N1 (stereo not drawn) [Compound I-103, N-((2-(2,6-dioxopiperidin-3-yl)-1-oxoisoindolin-5-yl)methyl)-2-oxo-2-(pyridin-4-yl)acetamide] | < 25 |
| Cc1cc(C(C)(C)C)cc(C)c1C(=O)C(=O)NCc1ccc2c(c1)CN(C1CCC(=O)NC1=O)C2=O (stereo not drawn) [Compound I-104, 2-(4-(tert-butyl)-2,6-dimethylphenyl)-N-((2-(2,6-dioxopiperidin-3-yl)-1-oxoisoindolin-5-yl)methyl)-2-oxoacetamide] | > 80 |
| Cc1cc(C(C)(C)C)cc(C)c1C(=O)C(=O)NCc1cccc2c1CN(C1CCC(=O)NC1=O)C2=O (stereo not drawn) [Compound I-105, 2-(4-(tert-butyl)-2,6-dimethylphenyl)-N-((2-(2,6-dioxopiperidin-3-yl)-1-oxoisoindolin-4-yl)methyl)-2-oxoacetamide] | < 25 |
| O=C1CCC(N2Cc3c(CNC(=O)C(=O)c4ccc(Br)cc4)cccc3C2=O)C(=O)N1 (stereo not drawn) [Compound I-106, 2-(4-bromophenyl)-N-((2-(2,6-dioxopiperidin-3-yl)-1-oxoisoindolin-4-yl)methyl)-2-oxoacetamide] | < 25 |
